Patent publication US20240199634A1, “CYCLIC COMPOUNDS AND METHODS OF USING SAME” (SCHRÖDINGER, INC., priority 2021, published 2024)

Molecular target: T1, Full length human CDC7 protein co-expressed with DBF4 (Homo sapiens, UniProt O00311)
T1 construct: Full length human CDC7 protein co-expressed with DBF4; purchased SignalChem (China)
Experiment: CDC7 Kinase Biochemical Assay (ADP-Glo, PDKtide substrate)
Details: 0.1 nM CDC7/DBF4, 1 μM ATP, 10 μM PDKtide, 4 h reaction
Procedure: CDC7 Kinase Biochemical Assay PROTOCOL:
Full length human CDC7 protein co-expressed with DBF4 was purchased from SignalChem (China). CDC7 kinase activity was determined with PDKtide (SignalChem) as a substrate and by measuring ADP production using the ADP-Glo™ Kinase Assay kit (Promega) following the manufacturer's instructions. The kinase reaction was performed using the following conditions: Buffer: 40 mM Tris pH 7.5, 20 mM MgCl2, 0.1 mg/mL BSA and 50 μM DTT. Final reaction mix contained 0.1 nM CDC7/DBF4, 1 μM ATP and 10 μM PDKtide. The kinase reaction time was 4 h. The ADP-Glo signal was measured using an EnVision plate reader (PerkinELmer).
Percent inhibition of CDC7 kinase activity was calculated based on the following formula:
[formula] • SSample: the signal of compounds • SHigh Ctrl: the signal of high control (DMSO) • SLow Ctrl: the signal of low control (positive control CDC7 inhibitor)

T1 sequence (O00311 whole entry): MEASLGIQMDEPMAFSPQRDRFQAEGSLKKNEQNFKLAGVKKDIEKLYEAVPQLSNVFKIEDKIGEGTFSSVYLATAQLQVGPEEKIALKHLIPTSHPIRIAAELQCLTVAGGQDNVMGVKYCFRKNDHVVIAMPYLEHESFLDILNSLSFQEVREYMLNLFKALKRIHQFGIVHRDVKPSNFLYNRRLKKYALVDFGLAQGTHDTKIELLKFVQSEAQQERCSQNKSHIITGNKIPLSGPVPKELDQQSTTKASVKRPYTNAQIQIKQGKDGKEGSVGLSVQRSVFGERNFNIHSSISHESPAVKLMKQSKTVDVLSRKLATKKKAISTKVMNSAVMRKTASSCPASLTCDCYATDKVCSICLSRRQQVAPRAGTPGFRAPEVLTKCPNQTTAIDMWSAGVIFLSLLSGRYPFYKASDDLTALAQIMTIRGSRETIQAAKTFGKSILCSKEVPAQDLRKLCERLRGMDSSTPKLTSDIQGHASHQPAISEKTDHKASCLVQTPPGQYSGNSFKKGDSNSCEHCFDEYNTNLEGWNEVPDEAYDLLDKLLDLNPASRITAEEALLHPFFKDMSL
T1 sequence (Q9UBU7 whole entry partner): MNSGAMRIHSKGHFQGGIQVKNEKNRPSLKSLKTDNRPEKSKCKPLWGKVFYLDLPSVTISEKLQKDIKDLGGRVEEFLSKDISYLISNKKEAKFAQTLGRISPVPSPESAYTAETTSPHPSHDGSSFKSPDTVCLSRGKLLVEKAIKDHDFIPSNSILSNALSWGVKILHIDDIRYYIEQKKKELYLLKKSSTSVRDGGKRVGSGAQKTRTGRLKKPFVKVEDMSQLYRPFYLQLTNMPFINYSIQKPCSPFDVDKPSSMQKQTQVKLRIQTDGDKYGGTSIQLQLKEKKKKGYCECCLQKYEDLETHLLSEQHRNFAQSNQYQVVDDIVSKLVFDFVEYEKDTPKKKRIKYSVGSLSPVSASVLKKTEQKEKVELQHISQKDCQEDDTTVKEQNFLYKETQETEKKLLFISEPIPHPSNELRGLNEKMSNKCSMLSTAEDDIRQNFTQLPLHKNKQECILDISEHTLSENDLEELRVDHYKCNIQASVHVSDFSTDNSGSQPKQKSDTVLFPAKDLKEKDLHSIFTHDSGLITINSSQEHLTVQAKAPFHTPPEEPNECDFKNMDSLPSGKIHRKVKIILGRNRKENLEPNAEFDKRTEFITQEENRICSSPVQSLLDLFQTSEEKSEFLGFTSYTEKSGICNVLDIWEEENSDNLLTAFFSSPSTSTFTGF

| IC50 | Compound |
| --- | --- |
| ≤ 1 nM | CC(C)(C)C1(O)COCc2c1[nH]c(=O)c1sc(-c3ccnnc3)cc21 (single isomer, unassigned) [Compound 67] |
| > 10 nM | CC(C)(C)C1(O)COCc2c1[nH]c(=O)c1sc(-c3ccnnc3)cc21 (single isomer, unassigned) [Compound 68] |
| > 10 nM | Cc1cnccc1-c1cc2c3c([nH]c(=O)c2s1)C(O)(C(C)(C)C)COC3 (single isomer, unassigned) [Compound 70] |
| 1 to 10 nM | CC#CC1(O)COCc2c1[nH]c(=O)c1sc(-c3cn[nH]c3)cc21 (single isomer, unassigned) [Compound 72] |
| > 10 nM | CC#CC1(O)COCc2c1[nH]c(=O)c1sc(-c3cn[nH]c3)cc21 (single isomer, unassigned) [Compound 73] |
| > 10 nM | CCC(C)C1(O)COCc2c1[nH]c(=O)c1sc(-c3cn[nH]c3)cc21 (single isomer, unassigned) [Compound 74] |
| > 10 nM | CCC(C)C1(O)COCc2c1[nH]c(=O)c1sc(-c3cn[nH]c3)cc21 (single isomer, unassigned) [Compound 75] |
| ≤ 1 nM | CC[C@@H](C)[C@@]1(O)COCc2c1[nH]c(=O)c1sc(-c3cn[nH]c3)cc21 (single isomer, unassigned) [Compound 76] |
| ≤ 1 nM | CC[C@H](C)[C@]1(O)COCc2c1[nH]c(=O)c1sc(-c3cn[nH]c3)cc21 (single isomer, unassigned) [Compound 77] |
| ≤ 1 nM | O=c1[nH]c2c(c3cc(-c4cn[nH]c4)sc13)COCC2(O)C1CCCC1 (single isomer, unassigned) [Compound 78] |
| 1 to 10 nM | O=c1[nH]c2c(c3cc(-c4cn[nH]c4)sc13)COCC2(O)C1CCCC1 (single isomer, unassigned) [Compound 79] |
| > 10 nM | CCC(C)(C)C1(O)COCc2c1[nH]c(=O)c1sc(-c3cn[nH]c3)cc21 (single isomer, unassigned) [Compound 80] |
| ≤ 1 nM | CCC(C)(C)C1(O)COCc2c1[nH]c(=O)c1sc(-c3cn[nH]c3)cc21 (single isomer, unassigned) [Compound 81] |
| 1 to 10 nM | CN(C)C1(C)COCc2c1[nH]c(=O)c1sc(-c3cn[nH]c3)cc21 (single isomer, unassigned) [Compound 82] |
| 1 to 10 nM | CN(C)C1(C)COCc2c1[nH]c(=O)c1sc(-c3cn[nH]c3)cc21 (single isomer, unassigned) [Compound 83] |
| ≤ 1 nM | CC(C)C1(O)CCCc2c1[nH]c(=O)c1sc(-c3cn[nH]c3)cc21 (single isomer, unassigned) [Compound 87] |
| 1 to 10 nM | CC(C)C1(O)CCCc2c1[nH]c(=O)c1sc(-c3cn[nH]c3)cc21 (single isomer, unassigned) [Compound 88] |
| > 10 nM | Cn1nccc1-c1cc2c3c([nH]c(=O)c2s1)C(O)(C(C)(C)C)COC3 (single isomer, unassigned) [Compound 90] |
| ≤ 1 nM | Cc1n[nH]cc1-c1cc2c3c([nH]c(=O)c2s1)C(O)(C(C)(C)C)COC3 (single isomer, unassigned) [Compound 92] |
| 1 to 10 nM | CC(F)(F)C1(O)COCc2c1[nH]c(=O)c1sc(-c3cn[nH]c3)cc21 (single isomer, unassigned) [Compound 95] |
| ≤ 1 nM | CC(F)(F)C1(O)COCc2c1[nH]c(=O)c1sc(-c3cn[nH]c3)cc21 (single isomer, unassigned) [Compound 96] |
| ≤ 1 nM | O=c1[nH]c2c(c3cc(-c4cn[nH]c4)sc13)CCCC2 [Compound 1, 2-(1H-pyrazol-4-yl)-6,7,8,9-tetrahydrothieno[2,3-c]quinolin-4(5H)-one] |
| ≤ 1 nM | O=c1[nH]c2c(c3c(F)c(-c4cn[nH]c4)sc13)CC(F)(F)CC2 [Compound 2, 1,8,8-trifluoro-2-(1H-pyrazol-4-yl)-5,6,7,9-tetrahydrothieno[2,3-c]quinolin-4-one] |
| ≤ 1 nM | O=c1[nH]c2c(c3cc(-c4ccncc4)sc13)C1CCC2(O)CC1 [Compound 9, 6-hydroxy-2-(pyridin-4-yl)-6,7,8,9-tetrahydro-6,9-ethanothieno[2,3-c]quinolin-4(5H)-one] |
